Measurements from patent US9963453B2, “Substituted pyrazino[1,2-a]indoles as sigma receptor activity modulators” (LABORATORIOS DEL DR. ESTEVE S.A., priority 2013, dated 2018).
Structures can show the parent of a compound that is named as a salt.

biological target: human sigma 1 receptor (Homo sapiens (Human), UniProt Q99720); experiment: Human Sigma 1 Receptor Radioligand Assay; assay type: binding; settings: transfected HEK-293 membranes, 5 nM [3H](+)-pentazocine as radioligand, 37° C., 120 minutes
Sequence (Q99720 whole entry): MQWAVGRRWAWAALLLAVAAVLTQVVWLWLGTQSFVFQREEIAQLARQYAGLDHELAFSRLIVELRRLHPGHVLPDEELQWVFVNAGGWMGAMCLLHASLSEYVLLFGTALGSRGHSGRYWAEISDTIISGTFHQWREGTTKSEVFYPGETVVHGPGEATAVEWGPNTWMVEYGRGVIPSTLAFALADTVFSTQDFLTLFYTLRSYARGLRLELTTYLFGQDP
Method: Human Sigma 1 Receptor Radioligand Assay
To investigate binding properties of sigma 1 receptor ligands to human sigma 1 receptor, transfected HEK-293 membranes and [^3H](+)-pentazocine (Perkin Elmer, NET-1056), as the radioligand, were used. The assay was carried out with 7 μg of membrane suspension, 5 nM of [^3H](+)-pentazocine in either absence or presence of either buffer or 10 μM Haloperidol for total and non-specific binding, respectively. Binding buffer contained Tris-HCl 50 mM at pH 8. Plates were incubated at 37° C. for 120 minutes. After the incubation period, the reaction mix was then transferred to MultiScreen HTS, FC plates (Millipore), filtered and plates were washed 3 times with ice-cold 10 mM TrisHCL (pH7.4). Filters were dried and counted at approximately 40% efficiency in a MicroBeta scintillation counter (Perkin-Elmer) using EcoScint liquid scintillation cocktail.

Row | SMILES | Ki [nM]
1 | CC(C(=O)N1CCn2c(cc3ccccc32)C1)N1CCN(C)CC1 (stereo not drawn) [Example 1, 1-(3,4-dihydropyrazino[1,2-a]indol-2(1H)-yl)-2-(4-methylpiperazin-1-yl)propan-1-one] | 105
2 | CN1CCN(C(C)(C)C(=O)N2CCn3c(cc4ccccc43)C2)CC1 [Example 2, 1-(3,4-dihydropyrazino[1,2-a]indol-2(1H)-yl)-2-methyl-2-(4-methylpiperazin-1-yl)propan-1-one] | 96.1
3 | CC(CC(=O)N1CCn2c(cc3ccccc32)C1)N1CCN(C)CC1 (stereo not drawn) [Example 3, 1-(3,4-dihydropyrazino[1,2-a]indol-2(1H)-yl)-3-(4-methylpiperazin-1-yl)butan-1-one] | 68.2
4 | O=C(CN1CCCCCC1)N1CCn2c(cc3ccccc32)C1 [Example 4, 2-(azepan-1-yl)-1-(3,4-dihydropyrazino[1,2-a]indol-2(1H)-yl)ethanone hydrochloride] | 10.2
5 | O=C(CN1CCCCC1)N1CCn2c(cc3ccccc32)C1 [Example 5, 1-(3,4-dihydropyrazino[1,2-a]indol-2(1H)-yl)-2-(piperidin-1-yl)ethanone hydrochloride] | 39.8
6 | O=C(CN1CCC(Cc2ccccc2)CC1)N1CCn2c(cc3ccccc32)C1 [Example 6, 2-(4-benzylpiperidin-1-yl)-1-(3,4-dihydropyrazino[1,2-a]indol-2(1H)-yl)ethanone hydrochloride] | 14.4
7 | CC(C(=O)N1CCn2c(cc3ccccc32)C1)N1CCCCCC1 (stereo not drawn) [Example 7, 2-(azepan-1-yl)-1-(3,4-dihydropyrazino[1,2-a]indol-2(1H)-yl)propan-1-one] | 24.8
8 | CC(C(=O)N1CCn2c(cc3ccccc32)C1)N1CCCCC1 (stereo not drawn) [Example 9, 1-(3,4-dihydropyrazino[1,2-a]indol-2(1H)-yl)-2-(piperidin-1-yl)propan-1-one] | 129
9 | CC(C(=O)N1CCn2c(cc3ccccc32)C1)N1CCC(Cc2ccccc2)CC1 (stereo not drawn) [Example 10, 2-(4-benzylpiperidin-1-yl)-1-(3,4-dihydropyrazino[1,2-a]indol-2(1H)-yl)propan-1-one] | 25
10 | CN(C)CCCC(=O)N1CCn2c(cc3ccccc32)C1 [Example 11, 1-(3,4-dihydropyrazino[1,2-a]indol-2(1H)-yl)-4-(dimethylamino)butan-1-one] | 60.8
11 | O=C(CN1CCCCCC1)N1CCn2c(cc3cc(F)ccc32)C1 [Example 12, 2-(azepan-1-yl)-1-(8-fluoro-3,4-dihydropyrazino[1,2-a]indol-2(1H)-yl)ethanone] | 14.6
12 | Cc1ccc2c(c1)cc1n2CCN(C(=O)C(C)N2CCCCCC2)C1 (stereo not drawn) [Example 13, 2-(azepan-1-yl)-1-(8-methyl-3,4-dihydropyrazino[1,2-a]indol-2(1H)-yl)propan-1-one] | 69.7
13 | Cc1c2n(c3ccccc13)CCN(C(=O)CN1CCCCC1)C2 [Example 14, 1-(10-methyl-3,4-dihydropyrazino[1,2-a]indol-2(1H)-yl)-2-(piperidin-1-yl)ethanone] | 24
14 | Cc1c2n(c3ccccc13)CCN(C(=O)CN1CCC(Cc3ccccc3)CC1)C2 [Example 15, 2-(4-benzylpiperidin-1-yl)-1-(10-methyl-3,4-dihydropyrazino[1,2-a]indol-2(1H)-yl)ethanone] | 26.2
15 | O=C(CCCN1CCCCC1)N1CCn2c(cc3cc(F)ccc32)C1 [Example 16, 1-(8-fluoro-3,4-dihydropyrazino[1,2-a]indol-2(1H)-yl)-4-(piperidin-1-yl)butan-1-one] | 22.2
16 | O=C(CCN1CCCCCC1)N1CCn2c(cc3ccccc32)C1 [Example 17, 3-(azepan-1-yl)-1-(3,4-dihydropyrazino[1,2-a]indol-2(1H)-yl)propan-1-one] | 10.9
17 | C[C@@H](C(=O)N1CCn2c(cc3ccccc32)C1)N1CCN(C)CC1 [Example 19, (S)-1-(3,4-dihydropyrazino[1,2-a]indol-2(1H)-yl)-2-(4-methylpiperazin-1-yl)propan-1-one] | 55.9
18 | O=C(CCCN1CCCCC1)N1CCn2c(cc3ccccc32)C1 [Example 20, 1-(3,4-dihydropyrazino[1,2-a]indol-2(1H)-yl)-4-(piperidin-1-yl)butan-1-one] | 28.8
19 | O=C(CCCN1CCCCCC1)N1CCn2c(cc3cc(F)ccc32)C1 [Example 21, 4-(azepan-1-yl)-1-(8-fluoro-3,4-dihydropyrazino[1,2-a]indol-2(1H)-yl)butan-1-one] | 21.9

Row | SMILES | Ki [nM]
20 | CN1CCN(CCCC(=O)N2CCn3c(cc4ccccc43)C2)CC1 [Example 22, 1-(3,4-dihydropyrazino[1,2-a]indol-2(1H)-yl)-4-(4-methylpiperazin-1-yl)butan-1-one] | 292
21 | CC(C(=O)N1CCn2c(cc3ccccc32)C1)N1CCN(C2CCCCC2)CC1 (stereo not drawn) [Example 24, 2-(4-cyclohexylpiperazin-1-yl)-1-(3,4-dihydropyrazino[1,2-a]indol-2(1H)-yl)propan-1-one] | 37.6
22 | CC(C(=O)N1CCN2c3ccccc3CC2C1)N1CCN(C)CC1 (stereo not drawn) [Example 25, 2-(4-methylpiperazin-1-yl)-1-(3,4,10,10a-tetrahydropyrazino[1,2-a]indol-2(1H)-yl)propan-1-one] | 118
23 | CC(C(=O)N1CCn2c(cc3cc(F)ccc32)C1)N1CCN(C)CC1 (stereo not drawn) [Example 26, 1-(8-fluoro-3,4-dihydropyrazino[1,2-a]indol-2(1H)-yl)-2-(4-methylpiperazin-1-yl)propan-1-one] | 123
24 | CC(C(=O)N1CCn2c(cc3cc(F)ccc32)C1)N1CCN(C2CCCCC2)CC1 (stereo not drawn) [Example 27, 2-(4-cyclohexylpiperazin-1-yl)-1-(8-fluoro-3,4-dihydropyrazino[1,2-a]indol-2(1H)-yl)propan-1-one] | 25.6
25 | CCN1CCN(C(C)C(=O)N2CCn3c(cc4cc(F)ccc43)C2)CC1 (stereo not drawn) [Example 29, 2-(4-ethylpiperazin-1-yl)-1-(8-fluoro-3,4-dihydropyrazino[1,2-a]indol-2(1H)-yl)propan-1-one] | 125
26 | CCN(CC)CCNC(C)C(=O)N1CCn2c(cc3ccccc32)C1 (stereo not drawn) [Example 30, 2-(2-(diethylamino)ethylamino)-1-(3,4-dihydropyrazino[1,2-a]indol-2(1H)-yl)propan-1-one] | 241
27 | C[C@H](C(=O)N1CCN2c3ccccc3C[C@H]2C1)N1CCN(C)CC1 [Example 32, (R)-2-(4-methylpiperazin-1-yl)-1-((S)-3,4,10,10a-tetrahydropyrazino[1,2-a]indol-2(1H)-yl)propan-1-one] | 234
28 | C[C@@H](C(=O)N1CCN2c3ccccc3C[C@@H]2C1)N1CCN(C)CC1 [Example 33, (S)-2-(4-methylpiperazin-1-yl)-1-((R)-3,4,10,10a-tetrahydropyrazino[1,2-a]indol-2(1H)-yl)propan-1-one] | 84.3
29 | C[C@@H](C(=O)N1CCN2c3ccccc3C[C@H]2C1)N1CCN(C)CC1 [Example 34, (S)-2-(4-methylpiperazin-1-yl)-1-((S)-3,4,10,10a-tetrahydropyrazino[1,2-a]indol-2(1H)-yl)propan-1-one] | 56.5
30 | CC(C(=O)N1CCn2c(cc3ccccc32)C1)N1CCC(N2CCCCC2)CC1 (stereo not drawn) [Example 37, 2-(1,4′-bipiperidin-1′-yl)-1-(3,4-dihydropyrazino[1,2-a]indol-2(1H)-yl)propan-1-one] | 500
31 | CCC(C(=O)N1CCn2c(cc3ccccc32)C1)N1CCN(C)CC1 (stereo not drawn) [Example 38, 1-(3,4-dihydropyrazino[1,2-a]indol-2(1H)-yl)-2-(4-methylpiperazin-1-yl)butan-1-one] | 89.3
32 | CCC(C(=O)N1CCn2c(cc3ccccc32)C1)N(C)CCN(C)C (stereo not drawn) [Example 39, 1-(3,4-dihydropyrazino[1,2-a]indol-2(1H)-yl)-2-((2-(dimethylamino)ethyl)(methyl)amino)butan-1-one] | 427
33 | CC(CN1CCN(C)CC1)C(=O)N1CCn2c(cc3ccccc32)C1 (stereo not drawn) [Example 41, 1-(3,4-dihydropyrazino[1,2-a]indol-2(1H)-yl)-2-methyl-3-(4-methylpiperazin-1-yl)propan-1-one] | 73
34 | CN(C)CCCC(=O)N1CCN2c3ccccc3CC2C1 (stereo not drawn) [Example 43, 4-(dimethylamino)-1-(3,4,10,10a-tetrahydropyrazino[1,2-a]indol-2(1H)-yl)butan-1-one] | 151
35 | CN1CCN(C(C)(C)C(=O)N2CCN3c4ccccc4CC3C2)CC1 (stereo not drawn) [Example 44, 2-methyl-2-(4-methylpiperazin-1-yl)-1-(3,4,10,10a-tetrahydropyrazino[1,2-a]indol-2(1H)-yl)propan-1-one] | 175
36 | CC[C@@H](C(=O)N1CCn2c(cc3ccccc32)C1)N1CCN(C)CC1 [Example 46, (S)-1-(3,4-dihydropyrazino[1,2-a]indol-2(1H)-yl)-2-(4-methylpiperazin-1-yl)butan-1-one] | 75.5
37 | C[C@H](CN1CCN(C)CC1)C(=O)N1CCn2c(cc3ccccc32)C1 [Example 47, (R)-1-(3,4-dihydropyrazino[1,2-a]indol-2(1H)-yl)-2-methyl-3-(4-methylpiperazin-1-yl)propan-1-one] | 49.5
38 | C[C@@H](CN1CCN(C)CC1)C(=O)N1CCn2c(cc3ccccc32)C1 [Example 48, (S)-1-(3,4-dihydropyrazino[1,2-a]indol-2(1H)-yl)-2-methyl-3-(4-methylpiperazin-1-yl)propan-1-one] | 142

same assay, conditions: transfected HEK-293 membranes, 5 nM [3H](+)-pentazocine as radioligand, 37° C., 120 minutes; maleate

Row | SMILES | Ki [nM]
39 | CC(C(=O)N1CCn2c(cc3ccccc32)C1)N1CCCCCC1 (stereo not drawn) [Example 8, 2-(azepan-1-yl)-1-(3,4-dihydropyrazino[1,2-a]indol-2(1H)-yl)propan-1-one maleate] | 29.6
